# Results as given in PubChem BioAssay (NCI).
#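 These data come from cells grown in 96-well plates and exposed to compound for 48 hours at five concentrations. TGI: concentration producing complete growth inhibition.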
# Key:
# Test in all cases: growth of human tumour cells (NCI), 48 h
# [1] = test system: NCI-H23 lung
# [2] = test system: UACC-62 melanoma
# [3] = test system: ACHN renal
# [4] = test system: BT-549 breast
# [5] = test system: MDA-MB-231 breast
# [6] = test system: MOLT-4 leukemia
# [7] = test system: SF-539 CNS
# [8] = test system: M14 melanoma
# [9] = test system: SK-MEL-5 melanoma
# [10] = test system: LOX IMVI melanoma
# [11] = test system: 786-0 renal
# [12] = test system: MDA-MB-435
# [13] = test system: A498 renal
# [14] = test system: SK-MEL-2 melanoma
# [15] = test system: U251 CNS
# [16] = test system: HCC-2998 colon
# [17] = test system: K-562 leukemia
# [18] = test system: HCT-116 colon
# [19] = test system: SK-MEL-28 melanoma
# [20] = test system: SF-268 CNS
# [21] = test system: OVCAR-8 ovarian
# [22] = test system: TK-10 renal
# [23] = test system: SF-295 CNS
# [24] = test system: RXF 393 renal
# [25] = test system: HT29 colon
# [26] = test system: MDA-N
# [27] = test system: OVCAR-4 ovarian
# [28] = test system: IGROV1 ovarian
# [29] = test system: MCF7 breast
# [30] = test system: NCI-H522 lung
# [31] = test system: HS 578T breast
# [32] = test system: NCI/ADR-RES ovarian
# [33] = test system: HOP-62 NSCLC
# [34] = test system: SN12C renal
# [35] = test system: HOP-92 NSCLC
# [36] = test system: DU-145 prostate
# [37] = test system: EKVX NSCLC
# [38] = test system: SR leukemia
# [39] = test system: SNB-19 CNS
# [40] = test system: HCT-15 colon
# [41] = test system: CAKI-1 renal
# [42] = test system: OVCAR-3 ovarian
# [43] = test system: UACC-257 melanoma
# [44] = test system: KM12 colon
# [45] = test system: MALME-3M melanoma
# [46] = test system: CCRF-CEM leukemia
# [47] = test system: COLO 205 colon
# [48] = test system: SNB-75 CNS
# [49] = test system: A549 NSCLC
# [50] = test system: UO-31 renal
# [51] = test system: SW-620 colon
# [52] = test system: RPMI-8226 leukemia
# [53] = test system: PC-3 prostate
# [54] = test system: NCI-H460 lung
# [55] = test system: OVCAR-5 ovarian
# [56] = test system: NCI-H226 lung
# [57] = test system: HL-60(TB) leukemia
# [58] = test system: SK-OV-3 ovarian
compound,measurement,setting,value
COC(=O)CCC1(O)C=CC(=O)C=C1,TGI,[1],97.4 µM
same,TGI,[2],58 µM
same,TGI,[3],> 100 µM
same,TGI,[4],> 100 µM
same,TGI,[5],> 100 µM
same,TGI,[6],> 100 µM
same,TGI,[7],76.4 µM
same,TGI,[8],> 100 µM
same,TGI,[9],> 100 µM
same,TGI,[10],> 100 µM
same,TGI,[11],> 100 µM
same,TGI,[12],> 100 µM
same,TGI,[13],> 100 µM
same,TGI,[14],> 100 µM
same,TGI,[15],63.2 µM
same,TGI,[16],> 100 µM
same,TGI,[17],> 100 µM
same,TGI,[18],> 100 µM
same,TGI,[19],60.9 µM
same,TGI,[20],> 100 µM
same,TGI,[21],> 100 µM
same,TGI,[22],> 100 µM
same,TGI,[23],> 100 µM
same,TGI,[24],61.5 µM
same,TGI,[25],> 100 µM
same,TGI,[26],> 100 µM
same,TGI,[27],> 100 µM
same,TGI,[28],> 100 µM
same,TGI,[29],> 100 µM
same,TGI,[30],28.8 µM
same,TGI,[31],> 100 µM
same,TGI,[32],> 100 µM
same,TGI,[33],> 100 µM
same,TGI,[34],> 100 µM
same,TGI,[35],> 100 µM
same,TGI,[36],> 100 µM
same,TGI,[37],> 100 µM
same,TGI,[38],> 100 µM
same,TGI,[39],> 100 µM
same,TGI,[40],43.2 µM
same,TGI,[41],33.1 µM
same,TGI,[42],59.5 µM
same,TGI,[43],66.3 µM
same,TGI,[44],> 100 µM
same,TGI,[45],50 µM
same,TGI,[46],> 100 µM
same,TGI,[47],40.2 µM
same,TGI,[48],> 100 µM
same,TGI,[49],> 100 µM
same,TGI,[50],> 100 µM
same,TGI,[51],> 100 µM
same,TGI,[52],> 100 µM
same,TGI,[53],> 100 µM
same,TGI,[54],> 100 µM
same,TGI,[55],> 100 µM
same,TGI,[56],> 100 µM
COc1ccccc1Cn1[nH]c(=O)c2cc([N+](=O)[O-])ccc21,TGI,[1],> 100 µM
same,TGI,[2],> 100 µM
same,TGI,[3],> 100 µM
same,TGI,[5],> 100 µM
same,TGI,[6],> 100 µM
same,TGI,[7],> 100 µM
same,TGI,[8],> 100 µM
same,TGI,[9],> 100 µM
same,TGI,[10],> 100 µM
same,TGI,[11],> 100 µM
same,TGI,[12],> 100 µM
same,TGI,[13],> 100 µM
same,TGI,[14],> 100 µM
same,TGI,[16],> 100 µM
same,TGI,[17],> 100 µM
same,TGI,[18],> 100 µM
same,TGI,[19],> 100 µM
same,TGI,[20],> 100 µM
same,TGI,[21],> 100 µM
same,TGI,[22],> 100 µM
same,TGI,[24],82.6 µM
same,TGI,[25],> 100 µM
same,TGI,[26],> 100 µM
same,TGI,[27],> 100 µM
same,TGI,[28],> 100 µM
same,TGI,[57],> 100 µM
same,TGI,[30],> 100 µM
same,TGI,[31],> 100 µM
same,TGI,[32],> 100 µM
same,TGI,[33],> 100 µM
same,TGI,[34],> 100 µM
same,TGI,[35],93.4 µM
same,TGI,[36],> 100 µM
same,TGI,[37],> 100 µM
same,TGI,[38],> 100 µM
same,TGI,[39],> 100 µM
same,TGI,[40],> 100 µM
same,TGI,[41],> 100 µM
same,TGI,[42],83 µM
same,TGI,[43],> 100 µM
same,TGI,[44],> 100 µM
same,TGI,[45],> 100 µM
same,TGI,[46],> 100 µM
same,TGI,[47],> 100 µM
same,TGI,[48],> 100 µM
same,TGI,[49],> 100 µM
same,TGI,[50],> 100 µM
same,TGI,[51],> 100 µM
same,TGI,[52],> 100 µM
same,TGI,[54],> 100 µM
same,TGI,[55],> 100 µM
same,TGI,[56],> 100 µM
CC(=O)C1C(=O)C(=O)N(c2ccc(Br)cc2)C1=O (stereo unspecified),TGI,[1],> 100 µM
same,TGI,[2],> 100 µM
same,TGI,[3],> 100 µM
same,TGI,[4],> 100 µM
same,TGI,[5],> 100 µM
same,TGI,[6],> 100 µM
same,TGI,[7],> 100 µM
same,TGI,[8],> 100 µM
same,TGI,[9],> 100 µM
same,TGI,[10],> 100 µM
same,TGI,[11],> 100 µM
same,TGI,[12],> 100 µM
same,TGI,[14],> 100 µM
same,TGI,[15],> 100 µM
same,TGI,[16],> 100 µM
same,TGI,[58],> 100 µM
same,TGI,[18],> 100 µM
same,TGI,[19],> 100 µM
same,TGI,[20],> 100 µM
same,TGI,[21],> 100 µM
same,TGI,[22],> 100 µM
same,TGI,[23],> 100 µM
same,TGI,[24],> 100 µM
same,TGI,[25],> 100 µM
same,TGI,[26],> 100 µM
same,TGI,[27],> 100 µM
same,TGI,[28],> 100 µM
same,TGI,[29],> 100 µM
same,TGI,[57],> 100 µM
same,TGI,[30],> 100 µM
same,TGI,[31],> 100 µM
same,TGI,[32],> 100 µM
same,TGI,[33],> 100 µM
same,TGI,[34],> 100 µM
same,TGI,[35],> 100 µM
same,TGI,[36],> 100 µM
same,TGI,[37],> 100 µM
same,TGI,[39],> 100 µM
same,TGI,[40],> 100 µM
same,TGI,[41],> 100 µM
same,TGI,[42],> 100 µM
same,TGI,[43],> 100 µM
same,TGI,[44],> 100 µM
same,TGI,[46],> 100 µM
same,TGI,[47],> 100 µM
same,TGI,[48],> 100 µM
same,TGI,[49],> 100 µM
same,TGI,[50],> 100 µM
same,TGI,[51],> 100 µM
same,TGI,[53],> 100 µM
same,TGI,[54],> 100 µM
same,TGI,[55],> 100 µM
same,TGI,[56],> 100 µM
